Like-named read-outs stand apart in the source and are kept apart here.
System: Phytophthora infestans
Format: in vivo
Settings: individual active compound, tomato leaves, infected next day, assessed after 6 days

Compound	Efficacy in % of the untreated control (0.25 ppm in the spray liquor) [%]	Efficacy in % of the untreated control (16 ppm in the spray liquor) [%]	Efficacy in % of the untreated control (1 ppm in the spray liquor) [%]
CC1CCN(c2c(-c3c(F)cccc3Cl)c(Cl)nc3ncnn23)CC1 [A]	0	0	
C[C@H](Nc1c(-c2c(F)cc(F)cc2F)c(Cl)nc2ncnn12)C(F)(F)F [B]	0	0	
CNC(=O)/C(=N/OC)c1ccccc1COc1cc(C)ccc1C [I, dimoxystrobin]	0		56
CC1CCN(c2c(-c3c(F)cc(F)cc3F)c(Cl)nc3ncnn23)CC1 [II, 5-chloro-7-(4-methylpiperidin-1-yl)-6-(2,4,6-trifluorophenyl)-[1,2,4]tri-azolo[1,5-a]pyrimidine]	0	0	

Source: patent US20060281766A1 (priority 2003, published 2006)
